Data reported in ChEMBL document CHEMBL6096738, “Optimization of Single Relaxin B-Chain Peptide Leads to the Identification of R2R01, a Potent, Long-Acting RXFP1 Agonist for Cardiovascular and Renal Diseases” (J Med Chem, 2025).
Starred links: 1 amine or outer side, 2 acyl side, 3 side chain; linkers in the order of their positions; H or OH if unused. Non-standard residues stand in square brackets, D forms with d. Residues, ends and D or L forms follow the SMILES beside them. Groups on a side chain read outwards from the residue. ξ: configuration not given here. *: point of attachment. X2 = CCCCCCCCCCCCCCCC(=O)N[C@@H](CCC(=O)N[C@@H](CCC(=O)N[C@@H](CCC(=O)NCCCOCCOCCOCCCNC(=O)CCC(=O)NCCCOCCOCCOCCCNC(=O)CCC(=O)NCCCOCCOCCOCCCN*)C(=O)O)C(=O)O)C(=O)O; PEG12 = NCCOCCOCCOCCOCCOCCOCCOCCOCCOCCOCCOCCOCCC(=O)O; γGlu = O=C(O)[C@H](CCC(=O)[*:2])N[*:1]; ξγGlu = O=C(O)C(CCC(=O)[*:2])N[*:1]; Stearoyl = CCCCCCCCCCCCCCCCCC(=O)*; Palmitoyl = CCCCCCCCCCCCCCCC(=O)*; Suc = O=C(CCC(=O)[*:2])[*:1]; αMeK = C[C@](N)(CCCCN)C(=O)O; Nle = CCCC[C@H](N)C(=O)O; AEEA = NCCOCCOCC(=O)O; Aib = CC(C)(N)C(=O)O

Columns and labels:
[1] = molecular target: T1, Relaxin receptor 1 (Homo sapiens) (UniProt Q9HBX9); assay: Agonist activity at human RXFP1 expressed in human OVCAR-5 cells assessed as intracellular cAMP accumulation by measuring maximal efficacy incubated for 30 mins by HTRF assay relative to control; format: functional, cell-based; conditions: filed as agonist
T1 sequence (whole entry): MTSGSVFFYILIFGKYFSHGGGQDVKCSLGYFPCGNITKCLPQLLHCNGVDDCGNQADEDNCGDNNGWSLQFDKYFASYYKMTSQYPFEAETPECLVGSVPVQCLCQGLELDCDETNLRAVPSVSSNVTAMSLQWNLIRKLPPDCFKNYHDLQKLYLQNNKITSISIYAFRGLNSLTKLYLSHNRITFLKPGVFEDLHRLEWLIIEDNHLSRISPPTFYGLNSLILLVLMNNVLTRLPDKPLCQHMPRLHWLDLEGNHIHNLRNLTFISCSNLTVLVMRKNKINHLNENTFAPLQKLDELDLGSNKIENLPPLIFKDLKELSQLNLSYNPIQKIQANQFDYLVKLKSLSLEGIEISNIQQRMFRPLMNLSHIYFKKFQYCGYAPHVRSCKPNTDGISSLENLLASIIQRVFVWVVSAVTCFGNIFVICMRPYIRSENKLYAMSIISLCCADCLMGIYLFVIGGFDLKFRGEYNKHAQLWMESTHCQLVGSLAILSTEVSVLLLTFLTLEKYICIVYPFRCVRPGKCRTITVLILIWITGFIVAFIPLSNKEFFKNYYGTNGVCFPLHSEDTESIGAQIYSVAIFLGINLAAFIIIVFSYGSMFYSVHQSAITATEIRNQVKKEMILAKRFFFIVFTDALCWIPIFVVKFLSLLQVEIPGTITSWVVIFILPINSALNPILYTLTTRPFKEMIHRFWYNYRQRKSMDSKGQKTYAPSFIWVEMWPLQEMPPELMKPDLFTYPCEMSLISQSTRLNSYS

[2] = molecular target: T2, Relaxin receptor 1 (Homo sapiens, UniProt Q9HBX9); assay: Agonist activity at human RXFP1 expressed in 2%HSA treated human OVCAR-5 cells assessed as intracellular cAMP accumulation incubated for 30 mins with 2% HSA pretreated compound by HTRF assay; format: functional, cell-based
T2 sequence (Q9HBX9 whole entry): T1 sequence (whole entry)

[3] = Half-life in male Sprague-Dawley rat at 1 mg/kg, iv measured after 198 hrs by LC-HRMS analysis; format: ADME, organism-based; conditions: in vivo
[4] = molecular target: T1, Relaxin receptor 1 (Homo sapiens); assay: Agonist activity at human RXFP1 expressed in 2%HSA treated human OVCAR-5 cells assessed as intracellular cAMP accumulation by measuring maximal efficacy incubated for 30 mins with 2% HSA pretreated compound by HTRF assay relative to control; format: functional, cell-based; conditions: filed as agonist
[5] = molecular target: T2, Relaxin receptor 1; assay: Agonist activity at human RXFP1 expressed in human OVCAR-5 cells assessed as intracellular cAMP accumulation incubated for 30 mins by HTRF assay; format: functional, cell-based

| Emax [1] [%] | EC50 [2] [nM] | half-life [3] [min] | Emax [4] [%] | EC50 [5] [nM] | Structure (SMILES) |
| --- | --- | --- | --- | --- | --- |
| 86 | 46 | 414 | 82 | – | CCCCCCCCCCCCCCCC(=O)N[C@@H](CCC(=O)N[C@@H](CCC(=O)N[C@@H](CCC(=O)NCCCC[C@H](NC(=O)CCOCCOCCOCCOCCOCCOCCOCCOCCOCCOCCOCCOCCNC(=O)[C@H](CCCCNC(C)=O)NC(=O)[C@H](CCCCN)NC(=O)[C@H](CCCNC(=N)N)NC(=O)C(C)(C)NC(=O)[C@H](CO)NC(=O)[C@H](Cc1c[nH]c2ccccc12)NC(=O)[C@@H](NC(=O)[C@H](CO)NC(=O)[C@H](CCCC)NC(=O)CNC(=O)[C@H](CCC(=O)O)NC(=O)C(C)(C)NC(=O)C(C)(C)NC(=O)[C@@H](NC(=O)[C@H](CCCCNC(C)=O)NC(=O)C(C)(C)NC(=O)[C@H](CCCNC(=N)N)NC(=O)[C@@H](NC(=O)[C@H](CCCCN)NC(=O)[C@H](CCC(=O)O)NC(=O)[C@H](CCCNC(=N)N)NC(=O)CNC(=O)[C@H](CCC(=O)O)NC(=O)[C@H](CC(C)C)NC(C)=O)C(C)C)[C@@H](C)CC)[C@@H](C)O)C(N)=O)C(=O)O)C(=O)O)C(=O)O (Ac-LEGREKVR[Aib]K(Ac)I[Aib][Aib]EG[Nle]STWS[Aib]RKK(Ac)[PEG12]K([γGlu-γGlu-γGlu-Palmitoyl])-NH2) |
| 78 | > 2000 | – | – | 14.5 | CCCCCCCCCCCCCCCC(=O)N[C@@H](CCC(=O)N[C@@H](CCC(=O)NC(CCC(=O)NCCOCCOCC(=O)NCCOCCOCC(=O)NCCOCCOCC(=O)NCCCC[C@H](NC(=O)[C@H](C)NC(=O)[C@H](CCCNC(=N)N)NC(=O)[C@@H](NC(=O)[C@H](CCCCN)NC(=O)[C@H](CCC(=O)O)NC(=O)[C@H](CCCNC(=N)N)NC(=O)CNC(=O)[C@H](CCC(=O)O)NC(=O)[C@H](CC(C)C)NC(C)=O)C(C)C)C(=O)N[C@H](C(=O)NC(C)(C)C(=O)NC(C)(C)C(=O)N[C@@H](CCC(=O)O)C(=O)NCC(=O)N[C@@H](CCCC)C(=O)N[C@@H](CO)C(=O)N[C@H](C(=O)N[C@@H](Cc1c[nH]c2ccccc12)C(=O)N[C@@H](CO)C(=O)NC(C)(C)C(=O)N[C@@H](CCCNC(=N)N)C(=O)N[C@@H](CCCCN)C(=O)N[C@@H](CCCCNC(C)=O)C(N)=O)[C@@H](C)O)[C@@H](C)CC)C(=O)O)C(=O)O)C(=O)O (stereo not given in full) (Ac-LEGREKVRAK([AEEA-AEEA-AEEA-ξγGlu-γGlu-γGlu-Palmitoyl])I[Aib][Aib]EG[Nle]STWS[Aib]RKK(Ac)-NH2) |
| 88 | 47.2 | – | 82 | – | CCCCCCCCCCCCCCCCCC(=O)N[C@@H](CCC(=O)N[C@@H](CCC(=O)N[C@@H](CCC(=O)NCCOCCOCC(=O)NCCOCCOCC(=O)NCCOCCOCC(=O)NCCCC[C@H](NC(=O)[C@H](CCCCNC(C)=O)NC(=O)[C@H](CCCCN)NC(=O)[C@H](CCCNC(=N)N)NC(=O)C(C)(C)NC(=O)[C@H](CO)NC(=O)[C@H](Cc1c[nH]c2ccccc12)NC(=O)[C@@H](NC(=O)[C@H](CO)NC(=O)[C@H](CCC(N)=O)NC(=O)CNC(=O)[C@H](CCC(=O)O)NC(=O)C(C)(C)NC(=O)C(C)(C)NC(=O)[C@@H](NC(=O)[C@H](CCCCNC(C)=O)NC(=O)[C@H](C)NC(=O)[C@H](CCCNC(=N)N)NC(=O)[C@@H](NC(=O)[C@H](CCCCN)NC(=O)[C@H](CCC(=O)O)NC(=O)[C@H](CCCNC(=N)N)NC(=O)CNC(=O)[C@H](CCC(=O)O)NC(=O)[C@H](CC(C)C)NC(C)=O)C(C)C)[C@@H](C)CC)[C@@H](C)O)C(N)=O)C(=O)O)C(=O)O)C(=O)O (Ac-LEGREKVRAK(Ac)I[Aib][Aib]EGQSTWS[Aib]RKK(Ac)K([AEEA-AEEA-AEEA-γGlu-γGlu-γGlu-Stearoyl])-NH2) |
| 88 | > 2000 | – | – | – | CCCCCCCCCCCCCCCC(=O)N[C@@H](CCC(=O)N[C@@H](CCC(=O)N[C@@H](CCC(=O)NCCOCCOCC(=O)NCCOCCOCC(=O)NCCOCCOCC(=O)NCCCC[C@H](NC(=O)CNC(=O)[C@H](CCC(=O)O)NC(=O)C(C)(C)NC(=O)C(C)(C)NC(=O)[C@@H](NC(=O)[C@H](CCCCNC(C)=O)NC(=O)[C@H](C)NC(=O)[C@H](CCCNC(=N)N)NC(=O)[C@@H](NC(=O)[C@H](CCCCN)NC(=O)[C@H](CCC(=O)O)NC(=O)[C@H](CCCNC(=N)N)NC(=O)CNC(=O)[C@H](CCC(=O)O)NC(=O)[C@H](CC(C)C)NC(C)=O)C(C)C)[C@@H](C)CC)C(=O)N[C@@H](CO)C(=O)N[C@H](C(=O)N[C@@H](Cc1c[nH]c2ccccc12)C(=O)N[C@@H](CO)C(=O)NC(C)(C)C(=O)N[C@@H](CCCNC(=N)N)C(=O)N[C@@H](CCCCN)C(=O)N[C@@H](CCCCNC(C)=O)C(N)=O)[C@@H](C)O)C(=O)O)C(=O)O)C(=O)O (Ac-LEGREKVRAK(Ac)I[Aib][Aib]EGK([AEEA-AEEA-AEEA-γGlu-γGlu-γGlu-Palmitoyl])STWS[Aib]RKK(Ac)-NH2) |
| 91 | 77 | – | 80 | 1.6 | CCCCCCCCCCCCCCCC(=O)N[C@@H](CCC(=O)N[C@@H](CCC(=O)N[C@@H](CCC(=O)NCCCC[C@H](NC(=O)COCCOCCNC(=O)COCCOCCNC(=O)COCCOCCNC(=O)[C@H](CCCCNC(C)=O)NC(=O)[C@H](CCCCN)NC(=O)[C@H](CCCNC(=N)N)NC(=O)C(C)(C)NC(=O)[C@H](CO)NC(=O)[C@H](Cc1c[nH]c2ccccc12)NC(=O)[C@@H](NC(=O)[C@H](CO)NC(=O)[C@H](CCCC)NC(=O)CNC(=O)[C@H](CCC(=O)O)NC(=O)C(C)(C)NC(=O)C(C)(C)NC(=O)[C@@H](NC(=O)[C@H](CCCCNC(C)=O)NC(=O)[C@H](C)NC(=O)[C@H](CCCNC(=N)N)NC(=O)[C@@H](NC(=O)[C@H](CCCCN)NC(=O)[C@H](CCC(=O)O)NC(=O)[C@H](CCCNC(=N)N)NC(=O)CNC(=O)[C@H](CCC(=O)O)NC(=O)[C@H](CC(C)C)NC(C)=O)C(C)C)[C@@H](C)CC)[C@@H](C)O)C(N)=O)C(=O)O)C(=O)O)C(=O)O (Ac-LEGREKVRAK(Ac)I[Aib][Aib]EG[Nle]STWS[Aib]RKK(Ac)[AEEA][AEEA][AEEA]K([γGlu-γGlu-γGlu-Palmitoyl])-NH2) |
| 95 | 19.4 | 690 | 94 | 0.06 | CCCCCCCCCCCCCCCC(=O)N[C@@H](CCC(=O)N[C@@H](CCC(=O)N[C@@H](CCC(=O)NCCCOCCOCCOCCCNC(=O)CCC(=O)NCCCOCCOCCOCCCNC(=O)CCC(=O)NCCCOCCOCCOCCCNC(=O)CCC(=O)NCCCC[C@H](NC(=O)[C@H](C)NC(=O)[C@H](CCCNC(=N)N)NC(=O)[C@@H](NC(=O)[C@H](CCCCN)NC(=O)[C@H](CCC(=O)O)NC(=O)[C@H](CCCNC(=N)N)NC(=O)CNC(=O)[C@H](CCC(=O)O)NC(=O)[C@H](CC(C)C)NC(C)=O)C(C)C)C(=O)N[C@H](C(=O)NC(C)(C)C(=O)NC(C)(C)C(=O)N[C@@H](CCC(=O)O)C(=O)NCC(=O)N[C@@H](CCC(N)=O)C(=O)N[C@@H](CO)C(=O)N[C@H](C(=O)N[C@@H](Cc1ccccc1)C(=O)N[C@@H](CO)C(=O)N[C@@](C)(CCCCN)C(=O)N[C@@H](CCCNC(=N)N)C(=O)N[C@@H](C)C(=O)N[C@@H](CCCCNC(C)=O)C(N)=O)[C@@H](C)O)[C@@H](C)CC)C(=O)O)C(=O)O)C(=O)O (Ac-LEGREKVRAK([Suc-X2])I[Aib][Aib]EGQSTFS[αMeK]RAK(Ac)-NH2) |
| 91 | 31.7 | – | 89 | 0.43 | CCCCCCCCCCCCCCCC(=O)N[C@@H](CCC(=O)N[C@@H](CCC(=O)N[C@@H](CCC(=O)NCCCOCCOCCOCCCNC(=O)CCC(=O)NCCCOCCOCCOCCCNC(=O)CCC(=O)NCCCOCCOCCOCCCNC(=O)CCC(=O)NCCCC[C@H](NC(=O)[C@@H](NC(=O)[C@H](CCCCNC(C)=O)NC(=O)[C@H](C)NC(=O)[C@H](CCCNC(=N)N)NC(=O)[C@@H](NC(=O)[C@H](CCCCN)NC(=O)[C@H](CCC(=O)O)NC(=O)[C@H](CCCNC(=N)N)NC(=O)CNC(=O)[C@H](CCC(=O)O)NC(=O)[C@H](CC(C)C)NC(C)=O)C(C)C)[C@@H](C)CC)C(=O)NC(C)(C)C(=O)N[C@@H](CCC(=O)O)C(=O)NCC(=O)N[C@@H](CCCC)C(=O)N[C@@H](CO)C(=O)N[C@H](C(=O)N[C@@H](Cc1ccccc1)C(=O)N[C@@H](CO)C(=O)N[C@@](C)(CCCCN)C(=O)N[C@@H](CCCNC(=N)N)C(=O)N[C@@H](C)C(=O)N[C@@H](CCCCNC(C)=O)C(N)=O)[C@@H](C)O)C(=O)O)C(=O)O)C(=O)O (Ac-LEGREKVRAK(Ac)IK([Suc-X2])[Aib]EG[Nle]STFS[αMeK]RAK(Ac)-NH2) |
